This note sets out measurements from ChEMBL document CHEMBL3045546, “Synthesis and antimicrobial screening of 4-thiazolidinone and 2-azetidinone derivatives of piperazine” (2013).

Values after ≈ are worked out from the molar mass of the structure shown.

Common to all, as to assay type: functional
The test system of one assay is Pseudomonas aeruginosa. Briefly: Antimicrobial activity against Pseudomonas aeruginosa ATCC 10145 assessed as growth inhibition by broth dilution method.
A further assay concerns Staphylococcus hominis. Briefly: Antimicrobial activity against Staphylococcus hominis ATCC 27844 assessed as growth inhibition by broth dilution method. On the technique in general: Broth dilution looks for growth in wells or tubes with falling amounts of substance.
A further assay has as its system Salmonella typhi. The experiment in a line: Antimicrobial activity against Salmonella enterica subsp. enterica serovar Typhi ATCC 19430 assessed as growth inhibition by broth dilution method.
Another assay deals with Escherichia coli. The experiment in a line: Antimicrobial activity against Escherichia coli ATCC 25922 assessed as growth inhibition by broth dilution method.
In another assay the test system is Aspergillus flavus. Briefly: Antimicrobial activity against Aspergillus flavus ATCC 15517 assessed as growth inhibition by broth dilution method.
Another assay relates to Aspergillus fumigatus. Briefly: Antimicrobial activity against Aspergillus fumigatus assessed as growth inhibition by broth dilution method.
In the next assay the test system is Bacillus subtilis. The experiment in a line: Antimicrobial activity against Bacillus subtilis ATCC 6633 assessed as growth inhibition by broth dilution method.
The next assay deals with Microsporum canis. The experiment in a line: Antimicrobial activity against Arthroderma otae ATCC 11622 assessed as growth inhibition by broth dilution method.
In assay [1] the test system is Staphylococcus epidermidis. Briefly: Antimicrobial activity against Staphylococcus epidermidis ATCC 12228 assessed as growth inhibition by broth dilution method.
For another assay, the system named is Candida albicans. The experiment in a line: Antimicrobial activity against Candida albicans ATCC 10231 assessed as growth inhibition by broth dilution method.
For a further assay, the system named is Bacillus cereus. Briefly: Antimicrobial activity against Bacillus cereus ATCC 11778 assessed as growth inhibition by broth dilution method.
In another assay the test system is Proteus vulgaris. The experiment in a line: Antimicrobial activity against Proteus vulgaris ATCC 13315 assessed as growth inhibition by broth dilution method.
For a further assay, the system named is Bacillus pumilus. The experiment in a line: Antimicrobial activity against Bacillus pumilus ATCC 14884 assessed as growth inhibition by broth dilution method.
For a further assay, the system named is Proteus mirabilis. The experiment in a line: Antimicrobial activity against Proteus mirabilis ATCC 49565 assessed as growth inhibition by broth dilution method.
Another assay relates to Aspergillus awamori. Briefly: Antimicrobial activity against Aspergillus awamori ATCC 22342 assessed as growth inhibition by broth dilution method.
For another assay, the system named is Trichophyton longifusum. Briefly: Antimicrobial activity against Trichophyton longifusum ATCC 22397 assessed as growth inhibition by broth dilution method.
For another assay, the system named is Alternaria alternata. The experiment in a line: Antimicrobial activity against Alternaria alternata ATCC 66868 assessed as growth inhibition by broth dilution method.
For the next assay, the system named is Klebsiella pneumoniae. Briefly: Antimicrobial activity against Klebsiella pneumoniae ATCC 13883 assessed as growth inhibition by broth dilution method.
Another assay relates to Micrococcus luteus. Briefly: Antimicrobial activity against Micrococcus luteus ATCC 4698 assessed as growth inhibition by broth dilution method.
Another assay has as its system Staphylococcus aureus. Briefly: Antimicrobial activity against Staphylococcus aureus ATCC 25923 assessed as growth inhibition by broth dilution method.
A further assay relates to Aspergillus niger. Briefly: Antimicrobial activity against Aspergillus niger ATCC 9142 assessed as growth inhibition by broth dilution method.
A further assay has as its system Rhizoctonia solani. The experiment in a line: Antimicrobial activity against Rhizoctonia solani ATCC 76131 assessed as growth inhibition by broth dilution method.
In a further assay the test system is Trichoderma viride. The experiment in a line: Antimicrobial activity against Hypocrea rufa ATCC 52440 assessed as growth inhibition by broth dilution method.
The test system of a further assay is Fusarium solani. Briefly: Antimicrobial activity against Fusarium solani ATCC 38136 assessed as growth inhibition by broth dilution method.

As to `O=C(CCl)N1CCN(CCN2C(=O)C(Cl)C2c2ccccc2O)CC1` (stereo unspecified), the MIC in the assay with Pseudomonas aeruginosa was determined as 75 µg/mL (≈ 194 µM); with Staphylococcus hominis it was 150 µg/mL (≈ 388 µM); in the assay with Salmonella typhi, 75 µg/mL (≈ 194 µM); in the assay on Escherichia coli, 150 µg/mL (≈ 388 µM); in the assay on Aspergillus flavus it was 300 µg/mL (≈ 777 µM); in the assay on Aspergillus fumigatus, 300 µg/mL (≈ 777 µM). Besides, the MIC with Bacillus subtilis was 150 µg/mL (≈ 388 µM); with Microsporum canis it was 300 µg/mL (≈ 777 µM); in assay [1] it was 150 µg/mL (≈ 388 µM); in the assay with Candida albicans, 300 µg/mL (≈ 777 µM); with Bacillus cereus, 150 µg/mL (≈ 388 µM); in the assay with Proteus vulgaris, 75 µg/mL (≈ 194 µM). For the same compound, the MIC in the assay with Bacillus pumilus came out at 75 µg/mL (≈ 194 µM); with Proteus mirabilis it was 75 µg/mL (≈ 194 µM); in the assay with Aspergillus awamori it was 300 µg/mL (≈ 777 µM); in the assay on Trichophyton longifusum, 300 µg/mL (≈ 777 µM); in the assay on Alternaria alternata it was 300 µg/mL (≈ 777 µM); with Klebsiella pneumoniae, 150 µg/mL (≈ 388 µM). The MIC with Micrococcus luteus was found to be 75 µg/mL (≈ 194 µM); in the assay with Staphylococcus aureus it was 75 µg/mL (≈ 194 µM); in the assay on Aspergillus niger, 300 µg/mL (≈ 777 µM); in the assay with Rhizoctonia solani, 300 µg/mL (≈ 777 µM); in the assay with Trichoderma viride, 300 µg/mL (≈ 777 µM); in the assay with Fusarium solani, 300 µg/mL (≈ 777 µM).
On to `O=C(CCl)N1CCN(CCN2C(=O)C(Cl)C2c2cccc(O)c2)CC1` (stereo unspecified), for which the MIC worked out at 37.5 µg/mL (≈ 97.1 µM) in the assay with Pseudomonas aeruginosa; 37.5 µg/mL (≈ 97.1 µM) in the assay on Staphylococcus hominis; 37.5 µg/mL (≈ 97.1 µM) in the assay on Salmonella typhi; 18.8 µg/mL (≈ 48.5 µM) in the assay on Escherichia coli; 75 µg/mL (≈ 194 µM) in the assay on Aspergillus flavus; 75 µg/mL (≈ 194 µM) in the assay with Aspergillus fumigatus. Further, the MIC with Bacillus subtilis was determined as 18.8 µg/mL (≈ 48.5 µM); in the assay on Microsporum canis, 75 µg/mL (≈ 194 µM); in [1] it was 18.8 µg/mL (≈ 48.5 µM); in the assay with Candida albicans it was 37.5 µg/mL (≈ 97.1 µM); in the assay on Bacillus cereus, 37.5 µg/mL (≈ 97.1 µM); in the assay with Proteus vulgaris it was 18.8 µg/mL (≈ 48.5 µM). Further, the MIC with Bacillus pumilus was found to be 37.5 µg/mL (≈ 97.1 µM); in the assay with Proteus mirabilis, 37.5 µg/mL (≈ 97.1 µM); in the assay on Aspergillus awamori it was 75 µg/mL (≈ 194 µM); in the assay with Trichophyton longifusum, 75 µg/mL (≈ 194 µM); in the assay with Alternaria alternata, 37.5 µg/mL (≈ 97.1 µM); in the assay with Klebsiella pneumoniae, 37.5 µg/mL (≈ 97.1 µM). Moreover, the MIC in the assay with Micrococcus luteus is 18.8 µg/mL (≈ 48.5 µM); in the assay with Staphylococcus aureus, 37.5 µg/mL (≈ 97.1 µM); in the assay on Aspergillus niger, 37.5 µg/mL (≈ 97.1 µM); with Rhizoctonia solani, 37.5 µg/mL (≈ 97.1 µM); in the assay with Trichoderma viride, 37.5 µg/mL (≈ 97.1 µM); in the assay on Fusarium solani, 37.5 µg/mL (≈ 97.1 µM).
Turning to `O=C(CCl)N1CCN(CCN2C(=O)C(Cl)C2c2ccc(O)cc2)CC1` (stereo unspecified), the MIC in the assay with Pseudomonas aeruginosa was 9.37 µg/mL (≈ 24.3 µM); in the assay with Staphylococcus hominis, 9.37 µg/mL (≈ 24.3 µM); with Salmonella typhi, 9.37 µg/mL (≈ 24.3 µM); in the assay with Escherichia coli, 4.68 µg/mL (≈ 12.1 µM); in the assay on Aspergillus flavus, 9.37 µg/mL (≈ 24.3 µM); in the assay on Aspergillus fumigatus it was 9.37 µg/mL (≈ 24.3 µM). Also, the MIC in the assay on Bacillus subtilis was 9.37 µg/mL (≈ 24.3 µM); with Microsporum canis, 9.37 µg/mL (≈ 24.3 µM); in [1], 9.37 µg/mL (≈ 24.3 µM); with Candida albicans, 18.8 µg/mL (≈ 48.5 µM); in the assay on Bacillus cereus it was 9.37 µg/mL (≈ 24.3 µM); in the assay on Proteus vulgaris, 4.68 µg/mL (≈ 12.1 µM). The MIC was 9.37 µg/mL (≈ 24.3 µM) in the assay with Bacillus pumilus; 9.37 µg/mL (≈ 24.3 µM) in the assay on Proteus mirabilis; 9.37 µg/mL (≈ 24.3 µM) with Aspergillus awamori; 18.8 µg/mL (≈ 48.5 µM) in the assay on Trichophyton longifusum; 18.8 µg/mL (≈ 48.5 µM) in the assay with Alternaria alternata; 9.37 µg/mL (≈ 24.3 µM) in the assay with Klebsiella pneumoniae. Also, the minimum inhibitory concentration (MIC) in the assay with Micrococcus luteus stood at 9.37 µg/mL (≈ 24.3 µM); in the assay with Staphylococcus aureus it was 9.37 µg/mL (≈ 24.3 µM); with Aspergillus niger it was 9.37 µg/mL (≈ 24.3 µM); in the assay on Rhizoctonia solani it was 9.37 µg/mL (≈ 24.3 µM); in the assay on Trichoderma viride, 9.37 µg/mL (≈ 24.3 µM); in the assay with Fusarium solani it was 18.8 µg/mL (≈ 48.5 µM).
As for `O=C(CCl)N1CCN(CCN2C(=O)C(Cl)C2c2ccccc2)CC1` (stereo unspecified), the MIC amounted to 18.8 µg/mL (≈ 50.6 µM) in the assay on Pseudomonas aeruginosa; 37.5 µg/mL (≈ 101 µM) in the assay with Staphylococcus hominis; 37.5 µg/mL (≈ 101 µM) with Salmonella typhi; 37.5 µg/mL (≈ 101 µM) in the assay with Escherichia coli; 75 µg/mL (≈ 203 µM) in the assay on Aspergillus flavus; 75 µg/mL (≈ 203 µM) in the assay on Aspergillus fumigatus. In addition, the MIC was 75 µg/mL (≈ 203 µM) in the assay on Bacillus subtilis; 75 µg/mL (≈ 203 µM) with Microsporum canis; 37.5 µg/mL (≈ 101 µM) in assay [1]; 75 µg/mL (≈ 203 µM) in the assay on Candida albicans; 18.8 µg/mL (≈ 50.6 µM) with Bacillus cereus; 37.5 µg/mL (≈ 101 µM) in the assay on Proteus vulgaris. For the same compound, the MIC with Bacillus pumilus turned out to be 18.8 µg/mL (≈ 50.6 µM); with Proteus mirabilis, 18.8 µg/mL (≈ 50.6 µM); with Aspergillus awamori it was 75 µg/mL (≈ 203 µM); in the assay on Trichophyton longifusum, 37.5 µg/mL (≈ 101 µM); with Alternaria alternata it was 37.5 µg/mL (≈ 101 µM); in the assay with Klebsiella pneumoniae, 37.5 µg/mL (≈ 101 µM). In addition, the MIC turned out to be 18.8 µg/mL (≈ 50.6 µM) in the assay on Micrococcus luteus; 18.8 µg/mL (≈ 50.6 µM) with Staphylococcus aureus; 75 µg/mL (≈ 203 µM) in the assay with Aspergillus niger; 75 µg/mL (≈ 203 µM) in the assay on Rhizoctonia solani; 75 µg/mL (≈ 203 µM) with Trichoderma viride; 75 µg/mL (≈ 203 µM) in the assay with Fusarium solani.

The term MIC denotes the least concentration at which growth counts as inhibited.
